Reference: PubChem BioAssay (NCI)
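A five-concentration, 48-hour dose response in 96-well plates underlies each endpoint, interpolated linearly between surrounding concentrations. The concentration for 50% growth inhibition is given as GI50. TGI: total growth inhibition.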

Experiments:
Experiment in all cases: growth of human tumour cells (NCI), 48 h; in the data active = GI50 below about 0.43 µM; inactive = the rest
NCI-H460 lung = system: NCI-H460 lung
OVCAR-4 ovarian = system: OVCAR-4 ovarian
RXF 393 renal = system: RXF 393 renal
PC-3 prostate = system: PC-3 prostate
IGROV1 ovarian = system: IGROV1 ovarian
MCF7 breast = system: MCF7 breast
SNB-75 CNS = system: SNB-75 CNS
SF-539 CNS = system: SF-539 CNS
NCI-H23 lung = system: NCI-H23 lung
U251 CNS = system: U251 CNS
ACHN renal = system: ACHN renal
EKVX NSCLC = system: EKVX NSCLC
NCI-H226 lung = system: NCI-H226 lung
OVCAR-3 ovarian = system: OVCAR-3 ovarian
RPMI-8226 leukemia = system: RPMI-8226 leukemia
HCT-116 colon = system: HCT-116 colon
MDA-MB-231 breast = system: MDA-MB-231 breast
SK-MEL-28 melanoma = system: SK-MEL-28 melanoma
HOP-62 NSCLC = system: HOP-62 NSCLC
UACC-62 melanoma = system: UACC-62 melanoma
T-47D breast = system: T-47D breast
SR leukemia = system: SR leukemia
SNB-19 CNS = system: SNB-19 CNS
CAKI-1 renal = system: CAKI-1 renal
HT29 colon = system: HT29 colon
M14 melanoma = system: M14 melanoma
HOP-92 NSCLC = system: HOP-92 NSCLC
NCI/ADR-RES ovarian = system: NCI/ADR-RES ovarian
UO-31 renal = system: UO-31 renal
A549 NSCLC = system: A549 NSCLC
SF-268 CNS = system: SF-268 CNS
SN12C renal = system: SN12C renal
LOX IMVI melanoma = system: LOX IMVI melanoma
COLO 205 colon = system: COLO 205 colon
NCI-H522 lung = system: NCI-H522 lung
SK-MEL-5 melanoma = system: SK-MEL-5 melanoma
OVCAR-8 ovarian = system: OVCAR-8 ovarian
KM12 colon = system: KM12 colon
SK-MEL-2 melanoma = system: SK-MEL-2 melanoma
786-0 renal = system: 786-0 renal
K-562 leukemia = system: K-562 leukemia
HCT-15 colon = system: HCT-15 colon
A498 renal = system: A498 renal
MOLT-4 leukemia = system: MOLT-4 leukemia
TK-10 renal = system: TK-10 renal
SK-OV-3 ovarian = system: SK-OV-3 ovarian
MALME-3M melanoma = system: MALME-3M melanoma
MDA-MB-435 = system: MDA-MB-435
OVCAR-5 ovarian = system: OVCAR-5 ovarian
BT-549 breast = system: BT-549 breast
DU-145 prostate = system: DU-145 prostate
SW-620 colon = system: SW-620 colon
CCRF-CEM leukemia = system: CCRF-CEM leukemia
SF-295 CNS = system: SF-295 CNS
HS 578T breast = system: HS 578T breast
UACC-257 melanoma = system: UACC-257 melanoma
HL-60(TB) leukemia = system: HL-60(TB) leukemia
HCC-2998 colon = system: HCC-2998 colon

Cc1ccc(S(=O)(=O)OC2CN3CCC2CC3)cc1 (configuration not stated)
> 100 µM: TGI (NCI-H460 lung) | TGI (OVCAR-4 ovarian) | TGI (RXF 393 renal) | TGI (PC-3 prostate) | TGI (IGROV1 ovarian) | TGI (MCF7 breast) | TGI (SNB-75 CNS) | TGI (SF-539 CNS) | TGI (NCI-H23 lung) | TGI (U251 CNS) | TGI (ACHN renal) | TGI (EKVX NSCLC) | TGI (NCI-H226 lung) | TGI (OVCAR-3 ovarian) | TGI (RPMI-8226 leukemia) | TGI (HCT-116 colon) | TGI (MDA-MB-231 breast) | TGI (SK-MEL-28 melanoma) | TGI (HOP-62 NSCLC) | TGI (UACC-62 melanoma) | TGI (T-47D breast) | TGI (SR leukemia) | TGI (SNB-19 CNS) | TGI (CAKI-1 renal) | TGI (HT29 colon) | TGI (M14 melanoma) | TGI (HOP-92 NSCLC) | TGI (NCI/ADR-RES ovarian) | TGI (UO-31 renal) | TGI (A549 NSCLC) | TGI (SF-268 CNS) | TGI (SN12C renal) | TGI (LOX IMVI melanoma) | TGI (COLO 205 colon) | TGI (NCI-H522 lung) | TGI (SK-MEL-5 melanoma) | TGI (OVCAR-8 ovarian) | TGI (KM12 colon) | TGI (SK-MEL-2 melanoma) | TGI (786-0 renal) | TGI (K-562 leukemia) | TGI (HCT-15 colon) | TGI (A498 renal) | TGI (MOLT-4 leukemia) | TGI (TK-10 renal) | TGI (SK-OV-3 ovarian) | TGI (MALME-3M melanoma) | TGI (MDA-MB-435) | TGI (OVCAR-5 ovarian) | TGI (BT-549 breast) | TGI (DU-145 prostate) | TGI (SW-620 colon) | TGI (CCRF-CEM leukemia) | TGI (SF-295 CNS) | TGI (HS 578T breast) | TGI (UACC-257 melanoma)
> 100000 nM: TGI (HL-60(TB) leukemia)

CC1=C(C(=O)Nc2ccc(F)c(Cl)c2)C(c2cccc(Cl)c2)NC(=O)N1 (configuration not stated)
38.7 µM: TGI (KM12 colon)
37.7 µM: TGI (HS 578T breast)
31.7 µM: TGI (M14 melanoma)
inactive: GI50 (NCI-H460 lung) 16.4 µM | GI50 (RXF 393 renal) 15 µM | GI50 (PC-3 prostate) 17.2 µM | GI50 (IGROV1 ovarian) 12.4 µM | GI50 (MCF7 breast) 19.8 µM | GI50 (SNB-75 CNS) 6.2 µM | GI50 (SF-539 CNS) 19.6 µM | GI50 (NCI-H23 lung) 16.8 µM | GI50 (U251 CNS) 16.5 µM | GI50 (ACHN renal) 18.3 µM | GI50 (HCC-2998 colon) 18.3 µM | GI50 (EKVX NSCLC) 24.2 µM | GI50 (NCI-H226 lung) 18.1 µM | GI50 (OVCAR-3 ovarian) 19.5 µM | GI50 (RPMI-8226 leukemia) 16.3 µM | GI50 (HCT-116 colon) 14.7 µM | GI50 (MDA-MB-231 breast) 11.6 µM | GI50 (SK-MEL-28 melanoma) 13.8 µM | GI50 (HOP-62 NSCLC) 17.5 µM | GI50 (UACC-62 melanoma) 13.2 µM | GI50 (T-47D breast) 15.4 µM | GI50 (SNB-19 CNS) 18.1 µM | GI50 (CAKI-1 renal) 27.3 µM | GI50 (HT29 colon) 14.8 µM | GI50 (M14 melanoma) 15.8 µM | GI50 (HOP-92 NSCLC) 15.5 µM | GI50 (NCI/ADR-RES ovarian) 27.5 µM | GI50 (UO-31 renal) 16.1 µM | GI50 (A549 NSCLC) 24.7 µM | GI50 (SF-268 CNS) 17.2 µM | GI50 (SN12C renal) 16 µM | GI50 (LOX IMVI melanoma) 16.9 µM | GI50 (COLO 205 colon) 13.7 µM | GI50 (NCI-H522 lung) 15.9 µM | GI50 (SK-MEL-5 melanoma) 13.6 µM | GI50 (OVCAR-8 ovarian) 17.5 µM | GI50 (KM12 colon) 20.6 µM | GI50 (SK-MEL-2 melanoma) 15.7 µM | GI50 (786-0 renal) 17.4 µM | GI50 (HCT-15 colon) 20.6 µM | GI50 (A498 renal) 1390 nM | GI50 (TK-10 renal) 15.8 µM | GI50 (SK-OV-3 ovarian) 19.1 µM | GI50 (MDA-MB-435) 17.9 µM | GI50 (OVCAR-5 ovarian) 23 µM | GI50 (BT-549 breast) 19 µM | GI50 (DU-145 prostate) 20.6 µM | GI50 (SW-620 colon) 18.9 µM | GI50 (CCRF-CEM leukemia) 21.2 µM | GI50 (SF-295 CNS) 20.2 µM | GI50 (HS 578T breast) 12.9 µM | GI50 (UACC-257 melanoma) 21.4 µM
35.3 µM: TGI (786-0 renal)
27.9 µM: TGI (HCT-116 colon)
30.5 µM: TGI (SK-MEL-2 melanoma)
31.6 µM: TGI (LOX IMVI melanoma)
38.1 µM: TGI (UO-31 renal)
42 µM: TGI (BT-549 breast)
31.9 µM: TGI (NCI-H23 lung)
55.8 µM: TGI (DU-145 prostate)
30.1 µM: TGI (HT29 colon)
31.5 µM: TGI (RXF 393 renal)
26.7 µM: TGI (UACC-62 melanoma)
46 µM: TGI (MCF7 breast)
46.4 µM: TGI (ACHN renal)
40.7 µM: TGI (SW-620 colon)
46.9 µM: TGI (PC-3 prostate) | TGI (RPMI-8226 leukemia) | TGI (HCT-15 colon)
37.2 µM: TGI (SF-539 CNS)
45.7 µM: TGI (OVCAR-5 ovarian)
50.9 µM: TGI (SF-295 CNS)
> 100 µM: TGI (CAKI-1 renal)
48.2 µM: TGI (NCI-H226 lung)
32.1 µM: TGI (SN12C renal)
35 µM: TGI (HOP-62 NSCLC)
53.1 µM: TGI (T-47D breast)
39.4 µM: TGI (SF-268 CNS)
27.8 µM: TGI (COLO 205 colon)
58.2 µM: TGI (CCRF-CEM leukemia)
39 µM: TGI (SNB-19 CNS)
44.6 µM: TGI (SK-OV-3 ovarian)
15.5 µM: TGI (A498 renal)
156 nM: TGI (HL-60(TB) leukemia)
56.2 µM: TGI (OVCAR-3 ovarian) | TGI (UACC-257 melanoma)
41.6 µM: TGI (TK-10 renal)
33 µM: TGI (HOP-92 NSCLC) | TGI (NCI-H522 lung)
26.9 µM: TGI (SK-MEL-5 melanoma)
39.7 µM: TGI (OVCAR-8 ovarian)
34 µM: TGI (NCI-H460 lung)
72.6 µM: TGI (EKVX NSCLC)
32.5 µM: TGI (U251 CNS) | TGI (HCC-2998 colon)
25.1 µM: TGI (MDA-MB-231 breast)
31.3 µM: TGI (IGROV1 ovarian)
85.1 µM: TGI (A549 NSCLC)
28 µM: TGI (SK-MEL-28 melanoma)
38 µM: TGI (MDA-MB-435)
25.5 µM: TGI (SNB-75 CNS)
67.6 µM: TGI (NCI/ADR-RES ovarian)
